Our source for the MIC and MBC values is US20220016200A1, “PHARMACEUTICAL COMPOSITION FOR THE TREATMENT OF CYSTIC FIBROSIS” (GALENUS G.H. AG, priority 2018, published 2022).

For assay [1], the system named is A. nosocomialis 1461911. The experiment in a line: Checkerboard fusidic acid (FD) and colistin sulfate (CS), MIC/FIC and MBC/FBC. In kind it is cell-based, Acinetobacter nosocomialis. As to the method: (§1) Checkerboard assays between fusidic acid (FD) and colistin sulfate (CS) with a bacterial load 5(1-10)*10^5 CFU/ml in cationic adapted Mueller Hinton broth (CAMHB). • a. Antimicrobial stock solutions were prepared using sterile distilled water; • b. CS was added along the ordinate; FD was added along the abscissa to 96 well, flat bottom, polystyrene panels with no treatment. Colistin alone was tested in triplicates; • c. Serial 2-fold dilutions starting with 640 […] CS and 640 μg/ml FD were made; 15 μl volume of the serial dilutions were added for each agent to the appropriate wells—final volume at 30 μl; • d. For each agent tested alone an additional 15 μl media was added to the well. 30 μl were added in control wells where none of the agent was tested. The negative control well contains 150 μl media without any additions; • e. From an overnight bacterial culture in tryptic soy broth, 100 μL was added to 10 mL of fresh tryptic soy broth. This was then incubated at 37° C. for 1.5 hour at 180 rpm; • f. Bacteria in 120 μl CAMHB were added to each well (end concentration 5(1-10)*10^5 CFU/ml); • g. Plates were incubated at 37° C. in an ambient air incubator for 24 h • h. Turbidity at OD600 is determined with a plate photometer • i. By using a one-time inoculator 3 μl from each well of the 96-well plate were transferred to three blood agar plates. The plates were incubated over night at 37° C. in an ambient air incubator; • j. MIC values are defined as lowest concentration which restricts bacterial growth to OD600≤0.1; • k. MBC values were determined by visual reading the lowest concentration which inhibits 99.9% of the growth of bacteria in the wells; • l. Determination of the fractional inhibitory concentration (FIC) index and fractional bactericidal concentration (FBC) index and characterization of antimicrobial interactions was assessed;
(§2) FIC calculation was carried out as: (MIC of drug A, tested in combination)/(MIC of drug A, tested alone)+(MIC of drug B, tested in combination)/(MIC of drug B, tested alone). FBC calculation was carried out just as well;
(§3) Interactive categories were calculated from checkerboard analysis using MIC results from testing each agent alone and MIC results from the combination wells adjacent to the wells with growth in them.
(§4) Determination of the fractional inhibitory concentration (FIC) index and fractional bactericidal concentration (FBC) index and characterization of antimicrobial interactions was assessed:
(§5) (ii) Indifference; FIC/FBC>0.5 to <4.0
(§6) (iii) Antagonism; FIC/FBC≥4.0
b. Acinetobacter nosocomialis 1461911 (IHMA), colistin resistant (3xCS 4/8)

Assay [2] relates to A. haemolyticus 1655843. Described as above. As to conditions: agent alone, CAMHB, 1*10^6 CFU/ml. In kind it is cell-based, Acinetobacter haemolyticus. As to the method: as §1, §2, §3, §4, §5, §6
c. Acinetobacter haemolyticus 1655843 (IHMA), colistin resistant (3xCS>16/>16-64/>64)

Assay [3] deals with A. guillouiae 1285286. The assay is described as above. In kind it is cell-based, Acinetobacter guillouiae. As to the method: as §1, §2, §3, §4, §5, §6
d. Acinetobacter guillouiae 1285286 (IHMA), colistin resistant (2xCS 2/4)

In assay [4] the test system is S. maltophilia 1221783. The experiment in a line: Checkerboard fusidic acid (FD) and colistin sulfate (CS), MIC/FIC. In kind it is cell-based, Stenotrophomonas maltophilia. As to conditions: agent alone, CAMHB, 1*10^6 CFU/ml, 24 h. As to the method:
Checkerboard assays between fusidic acid (FD) and colistin sulfate (CS) with a bacterial load 5(1-10)*10^5 CFU/ml in cationic adapted Mueller Hinton broth (CAMHB). • a. Antimicrobial stock solutions were prepared using sterile distilled water; • b. CS was added along the ordinate; FD was added along the abscissa to 96 well, flat bottom, polystyrene panels with no treatment. Colistin alone was tested in triplicates; • c. Serial 2-fold dilutions starting with 640 […] CS and 640 μg/ml FD were made; 15 μl volume of the serial dilutions were added for each agent to the appropriate wells—final volume at 30 μl; • d. For each agent tested alone an additional 15 μl media was added to the well. 30 μl were added in control wells where none of the agent was tested. […] Turbidity at OD600 is determined with a plate photometer • i. […] Determination of the fractional inhibitory concentration (FIC) index and fractional bactericidal concentration (FBC) index and characterization of antimicrobial interactions was assessed; […]
as §3
Determination of the fractional inhibitory concentration (FIC) index and fractional bactericidal concentration (FBC) index and characterization of antimicrobial interactions was assessed: […]

Assay [5] has as its system S. maltophilia 1237289. The description is as above. In kind it is cell-based, Stenotrophomonas maltophilia. As to conditions: for MIC: S. maltophilia 1237289, agent alone, CAMHB, 1*10^6 CFU/ml. The protocol: as §1, §2, §3, §4, §5, §6
e. Stenotrophomonas maltophilia 1237289 (IHMA), colistin resistant (CS 2/4-4/8-8/8)

Assay [6] has as its system A. nosocomialis strain (1204194 IHMA). The experiment in a line: Colistin MIC of the susceptible strain used in the mouse model. As to conditions: Acinetobacter nosocomialis; colistin susceptible A. nosocomialis strain 1204194 IHMA. In kind it is cell-based. As to the method: One colistin susceptible (MIC 1 mg/L) A. nosocomialis strain (1204194 IHMA) and one colistin resistant (MIC 4 mg/L) A. nosocomialis strain (1461911 IHMA) are used. […] Fresh brain heart infusion broth (Merck, Darmstadt, Germany) bacterial cultures, in an aerobic atmosphere in the logarithmic growth phase (4-5 hours) at 37° C., are adjusted to a concentration of 1.0×10^6 colony forming units (CFU)/mL, as verified by both spectrophotometry (OD600 0.01-0.02 nm) and colony counting.

Read-outs that look alike come from different tables or passages of the source. Bridge positions count the residues as written; N and C are the ends. Square brackets hold non-standard residues; d marks the D form. Peptide text beside a SMILES is read from it. * marks the point of attachment. Heptanoyl(5-Me) = CCC(C)CCCC(=O)*; Dab = NCC[C@H](N)C(=O)O Some results are limits rather than exact numbers.

On to `CCC(C)CCCC(=O)N[C@@H](CCN)C(=O)N[C@H](C(=O)N[C@@H](CCN)C(=O)N[C@H]1CCNC(=O)[C@H]([C@@H](C)O)NC(=O)[C@H](CCN)NC(=O)[C@H](CCN)NC(=O)[C@H](CC(C)C)NC(=O)[C@@H](CC(C)C)NC(=O)[C@H](CCN)NC1=O)[C@@H](C)O` (stereo partly drawn) [CS, colistin sulphate] ({Heptanoyl(5-Me)}-[Dab]T[Dab][Dab][Dab][dL]L[Dab][Dab]T; lactam 4-C), for which the MIC in assay [1] (A. nosocomialis 1461911, agent alone, CAMHB, 1*10^6 CFU/ml, 24 h) is 4 mg/1l; in assay [1] (organism list of Example 3, Acinetobacter nosocomialis 1461911, 3x, read-out: Colistin CS MIC), 4 µg/mL; in assay [2] (A. haemolyticus 1655843, 24 h) it was 64 mg/1l; in assay [3] (A. guillouiae 1285286, agent alone, CAMHB, 1*10^6 CFU/ml, 24 h), 2 mg/1l; in assay [3] (organism list of Example 3, Acinetobacter guillouiae 1285286, 2x, read-out: Colistin CS MIC), 2 µg/mL; in assay [4], 0.5 mg/1l. Moreover, the MIC is 1 mg/1l in assay [5] (24 h), “(4) mg/1l” in assay [5] (after 48 h growth (values in brackets)) and 1 µg/mL in assay [6]. Also, the minimal bactericidal concentration (MBC) (usually the smallest concentration meeting the test's criterion for killing) in assay [1] (Acinetobacter nosocomialis, A. nosocomialis 1461911, agent alone, CAMHB, 1*10^6 CFU/ml) is 8 µg/mL; in assay [2] (Acinetobacter haemolyticus, 1655843, A. haemolyticus 1655843), greater than 64 µg/mL; in assay [3] (Acinetobacter guillouiae, 1285286, A. guillouiae, agent alone, CAMHB, 1*10^6 CFU/ml, read-out: MBC), 4 µg/mL; in assay [3] (organism list of Example 3, Acinetobacter guillouiae 1285286, 2x, read-out: Colistin CS MBC), 4 µg/mL; in assay [5] (Stenotrophomonas maltophilia, 1237289, organism list of Example 3, Stenotrophomonas maltophilia 1237289, repeated determinations) it was 4 µg/mL.
